Experiments:
BPTF = molecular target: T1, BPTF (Homo sapiens, UniProt Q12830); test: SPR (Biacore T200, NiHC1500M chip); format: binding
T1 construct: bromodomain

CRBN = molecular target: T2, CRBN (Homo sapiens, UniProt Q96SW2); test: co-IP of BPTF with CRBN in 8d-treated Huh7 cells; pomalidomide rescue; N-methyl glutarimide control […] inactive; format: cell-based
T2 construct: with BPTF

BRD9 = molecular target: T3, BRD9 (Homo sapiens, UniProt Q9H8M2); test: SPR (Biacore T200, NiHC1500M chip); format: binding
T3 construct: bromodomain
T3 sequence (Q9H8M2 134-240 limits assumed): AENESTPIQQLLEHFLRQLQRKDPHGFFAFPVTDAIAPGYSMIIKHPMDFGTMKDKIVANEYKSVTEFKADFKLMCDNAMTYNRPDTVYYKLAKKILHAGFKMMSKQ

CECR2 = molecular target: T4, CECR2 (Homo sapiens, UniProt Q9BXF3); test: SPR positive control (Figure S7D); format: binding
T4 construct: bromodomain
T4 sequence (Q9BXF3 434-538 limits assumed): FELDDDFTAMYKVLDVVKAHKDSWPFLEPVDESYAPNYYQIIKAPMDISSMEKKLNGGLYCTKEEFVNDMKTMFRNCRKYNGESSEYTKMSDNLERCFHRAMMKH

T2 sequence (Q96SW2 whole entry, other chains not shown): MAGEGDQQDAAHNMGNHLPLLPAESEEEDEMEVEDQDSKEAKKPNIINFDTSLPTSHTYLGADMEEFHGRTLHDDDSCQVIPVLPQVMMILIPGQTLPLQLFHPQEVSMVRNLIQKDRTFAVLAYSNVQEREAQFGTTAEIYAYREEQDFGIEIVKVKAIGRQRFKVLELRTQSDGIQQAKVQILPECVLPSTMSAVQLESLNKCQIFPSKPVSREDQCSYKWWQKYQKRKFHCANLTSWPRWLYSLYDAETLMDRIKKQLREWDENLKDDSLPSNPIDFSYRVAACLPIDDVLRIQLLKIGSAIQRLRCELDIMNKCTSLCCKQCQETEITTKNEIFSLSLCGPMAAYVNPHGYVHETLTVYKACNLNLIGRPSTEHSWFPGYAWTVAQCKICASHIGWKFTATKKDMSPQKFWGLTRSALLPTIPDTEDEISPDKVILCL

| SMILES | Kd (BPTF) [µM] | co-IP of BPTF with CRBN in 8d-treated Huh7 cells; pomalidomide rescue; N-methyl (CRBN) | Kd (BRD9) [µM] | CECR2 bromodomain binding affinity (CECR2) |
| --- | --- | --- | --- | --- |
| CS(=O)(=O)c1nc(NCCCn2cccn2)cc(-c2ccc(NCc3cn(CCOCCOCCOCCOCCOCCNc4cccc5c4C(=O)N(C4CCC(=O)NC4=O)C5=O)nn3)cc2)n1 (stereo not shown) [8d, 4-((17-(4-(((4-(6-((3-(1H-pyrazol-1-yl)propyl)amino)-2-(methylsulfonyl)pyrimidin-4-yl)phenyl)amino)methyl)-1H-1,2,3-triazol-1-yl)-3,6,9,12,15 pentaoxaheptadecyl)amino)-2-(2,6-dioxopiperidin-3-yl) isoindoline-1,3-dione] | 0.563 | through direct recruitment of CRBN, 8d facilitates the proteasome-dependent selective degradation of BPTF | 28.8 | – |
| CN(C)CCCOc1ccc(-c2cc(NCCCn3cccn3)nc(S(C)(=O)=O)n2)cc1 [TP238] | – | – | – | minimal affinity for the CECR2 bromodomain (Figure S7D), which is known to strongly bind to TP238 as a positive control |

Source: PMC11997503, “A BPTF-specific PROTAC degrader enhances NK cell-based cancer immunotherapy” (Molecular Therapy, 2025)
